Consider six compounds from ChEMBL document CHEMBL1136030, “Synthesis and antiaggregant properties of Stabilized analogues of polyunsaturated fatty acid metabolites” (Bioorg Med Chem Lett, 2002).

For one experiment, the species on record is Homo sapiens. The experiment can be described thus: Anti-platelet activity was measured by studying their antagonist effects on human platelets aggregated with collagen. The experiment is classed as functional.
For the next experiment, the species on record is Oryctolagus cuniculus. The experiment can be described thus: Anti-platelet activity was measured by studying their antagonist effects on rabbit platelets aggregated with U-46,619. Type of experiment: functional.

Take `CCCCCC(O)c1cccc(CCCCCC(=O)O)c1` (stereo not given): the IC50 in the experiment listed under Homo sapiens was 27000 nM; in the experiment filed under Oryctolagus cuniculus, 500 nM.
The like results for `CCCCCC(=O)c1cccc(/C=C\CCCC(=O)O)c1` were, in that order, 7000 nM and 500 nM.
The like results for `CCCCCC(O)c1cccc(/C=C\CCCC(=O)O)n1` (stereo not given) were, in that order, 57000 nM and 1600 nM.
The compound `O=C(O)CCn1c2c(c3ccccc31)CC(NS(=O)(=O)c1ccc(F)cc1)CC2` (single isomer, unassigned) [RAMATROBAN] showed an IC50 in the experiment listed under Homo sapiens of 50 nM.
Turning to `CCCCCC(O)c1cccc(/C=C\CCCC(=O)O)c1` (stereo not given), the IC50 in the experiment listed under Homo sapiens was 20000 nM; in the experiment listed under Oryctolagus cuniculus it was 900 nM.
`CCCCC/C=C\C[C@@H](O)/C=C/C=C\C/C=C\CCCC(=O)O` came in with an IC50 in the experiment filed under Oryctolagus cuniculus of 4000 nM.
